Measured values: US10577322B2, “5-methoxytryptophan and its derivatives and uses thereof” (National Health Research Institutes, priority 2015, dated 2020)

Legend:
[1] = system: COX-2; test: LPS-induced COX-2 protein expression in RAW264.7 cells (immunoblot); type: cell-based, mouse; details: LPS 8 h
Experimental: (§1) Mouse RAW264.7 macrophages were from the American Type Culture Collection and cultured in DMEM containing 10% FBS. […] The duration of LPS (100 ng/ml) treatment varied depending on the experiment.
(§2) Cellular protein were resolved by 5% to 20% SDS-PAGE and transferred to nitrocellulose membranes and blotted with specific antibodies as previously described (Lee, G. L., et al.).
(§3) After pretreating mouse macrophage RAW264.7 cells with different concentrations of 5-MTP for 30 min, cells were stimulated with LPS for 8 h. Cell lysates were immunoblotted with antibodies for COX-2 or β-actin. In addition, RAW264.7 cells were transfected with COX-2 promoter-luciferase plasmid. After 24 h transfection, the cells were incubated with LPS for 8 h. Luciferase activity was measured.

[2] = system: IL-6; test: LPS-induced IL-6 level in RAW264.7 culture supernatants (ELISA); type: cell-based, mouse; details: RAW264.7 cells; for LPS-induced IL-6 protein expression: LPS 8 h
Experimental: as §1
Moreover, RAW264.7 cells and IL-6 promoter-luciferase plasmid transfected RAW264.7 cells were pretreated with different concentrations of 5-MTP for 30 min, followed by LPS stimulation for 8 h. IL-6 promoter activity was measured by luciferase assay. IL-6 level in culture supernatants was measured by ELISA.
Furthermore, RAW264.7 cells were treated with different concentrations of 5-MTP or 5-MTPE for 24 h. Cell viability was determined by MTT assay. In another experiment, after pretreating RAW264.7 cells with different concentrations of 5-MTP or 5-MTPE for 30 min, cells were stimulated with LPS for 24 h. IL-6 level in culture supernatants was measured by ELISA.
(§4) Herein, after pretreating RAW264.7 cells with different concentrations of 5-MTP, 5-MTPE, COX-2 inhibitors (NSC398 or SC560) and NF-κB inhibitor JSH-23 for 30 min, cells were stimulated with LPS. In addition, RAW264.7 cells were also transfected with COX-2 promoter-luciferase plasmid. After 24 h transfection, the cells were incubated with LPS for 8 h. Luciferase activity as measured.

[3] = system: COX-2; test: PMA-induced COX-2 expression in A549 cells (immunoblot); type: cell-based; details: for PMA-induced COX-2 protein expression: 30 min pretreatment, PMA 8 h
Experimental: as §2
After pretreating A549 cells with different concentrations of 5-MTP, 5-MTPE and NACT-5-MTP for 30 min, cells were stimulated with PMA for 8 h. Cell lysates were immunoblotted with antibodies for COX-2 or β-actin.

[4] = system: COX-2 promoter; test: COX-2 promoter-luciferase assay in RAW264.7 cells; type: cell-based, mouse; details: LPS 8 h
Experimental: RAW264.7 macrophages were cotransfected with COX-2 promoter-luciferase, IL-6 promoter-luciferase constructs as previously described (Lee, G. L., et al.) or p5xNF-κB-luciferase (Stratagene) and pcDNA3.1-β-galactosidase plasmids using FuGENE 6 (Roche). After overnight transfection, the cells were incubated with or without LPS in the presence or absence of 5-MTP for 8 h. After treatment, cells were lysed, and luciferase activity was measured using an assay kit (Promega). β-galactosidase activity was used to normalize the data.
as §3, with “measured. The experiments were repeated 3 times with similar results. The results shown in FIGS. 3A-3B confirmed that 5-MTP blocked LPS-induced COX-2 protein expression and promoter activity in a concentration-dependent manner in RAW264.7 cells.” for “measured.”
as §4

[5] = system: BT474 breast cancer cells; test: Transwell cell migration assay, BT474; type: cell-based; details: 30 min pretreatment, PMA 4 h or 24 h
Experimental: (§5) Briefly, cells (10^4/well) were seeded on the upper chamber (6.5-mm insert, 8-μm polycarbonate membrane; Corning Inc.), which was placed in each well of a 24-well plate. The lower chamber was filled with 700 μL DMEM supplemented with 10% FBS. For assessment of in vitro invasion, cells were seeded onto the upper chamber insert coated with Matrigel (BD Biosciences) under the same conditions as the transwell migration assays. At the indicated time, nonmigrated cells that remained at the top surface of the insert were removed with a cotton swab. Cells that migrated to the lower membrane surface and cells that invaded through the matrigel gel to the underside of the membrane were fixed, stained with 0.1% crystal violet for 20 min, and counted under light microscopy. All of the assays were done in triplicate with excellent reproducibility.
(§6) Lung cancer A549 and breast cancers BT474 and T47D cells were pretreated with different concentrations of 5-MTP or 5-MTPE for 30 min, then stimulated with PMA for 4 h or 24 h. Cell migration was measured by the transwell migration assay.

[6] = system: T47D breast cancer cells; test: Transwell cell migration assay, T47D; type: cell-based; details: 30 min pretreatment, PMA 4 h or 24 h
Experimental: as §5, §6

[7] = system: A549 lung cancer cells; test: Transwell cell migration assay, A549; type: cell-based; details: 30 min pretreatment, PMA 4 h or 24 h
Experimental: as §5, §6

Compound	LPS-induced COX-2 protein expression [1]	LPS-induced IL-6 protein expression [2]	PMA-induced COX-2 protein expression [3]	LPS-induced IL-6 level in culture supernatants ([2]; 30 min pretreatment, LPS 24 h)	LPS-induced COX-2 promoter activity (luciferase) [4]	PMA-induced BT474 cell migration [5]	PMA-induced T47D cell migration [6]	PMA-induced A549 cell migration [7]	COX-2 suppressive activity compared with 5-MTP ([3]; PMA)
COc1ccc2[nH]cc(CCN)c2c1 [5-methoxytryptamine, reference compound]	neither serotonin nor 5-methoxytryptamine or tryptophan exerted an effect	neither serotonin nor 5-methoxytryptamine or tryptophan exerted an effect	neither serotonin nor 5-methoxytryptamine or tryptophan exerted an effect	–	–	–	–	–	–
Cc1ccc(NCCCc2ccccc2)c(N)c1 [JSH-23, reference compound]	–	–	–	dose-dependently blocked	dose-dependently blocked	–	–	–	–
NCCc1c[nH]c2ccc(O)cc12 [Serotonin, reference compound]	neither serotonin nor 5-methoxytryptamine or tryptophan exerted an effect	neither serotonin nor 5-methoxytryptamine or tryptophan exerted an effect	neither serotonin nor 5-methoxytryptamine or tryptophan exerted an effect	–	–	–	–	–	–
N[C@@H](Cc1c[nH]c2ccccc12)C(=O)O [Tryptophan]	neither serotonin nor 5-methoxytryptamine or tryptophan exerted an effect	neither serotonin nor 5-methoxytryptamine or tryptophan exerted an effect	neither serotonin nor 5-methoxytryptamine or tryptophan exerted an effect	–	–	–	–	–	–
N-acetyl-5-MTP [NACT-5MTP]	–	–	dose-dependently blocked	–	–	abrogated	abrogated	abrogated	potent than that of 5-MTP
